# Test results as given in US8748368B2, “Methods for preserving organs and tissues” (DYAX Corp., priority 2002, dated 2014).
# Positions of bridges follow the written chain, without caps; N, C: chain ends. No end group written: not given here.
# Experiments:
# Assay in all cases: Affinity (Ki,app) for protease
# Format in all cases: biochemical
# human urine kallikrein = biological target: T1, human urine kallikrein (Homo sapiens, UniProt P06870)
# T1 construct: from tissue; host or cells: urine (from the name only)
# [1] = biological target: T2, porcine pancreatic kallikrein (Sus scrofa, UniProt P00752)
# T2 construct: from tissue; host or cells: pancreas (from the name only)
# human C1r, activated = biological target: T3, human C1r, activated (Homo sapiens, UniProt P00736)
# T3 sequence (P00736 18-463 limits assumed): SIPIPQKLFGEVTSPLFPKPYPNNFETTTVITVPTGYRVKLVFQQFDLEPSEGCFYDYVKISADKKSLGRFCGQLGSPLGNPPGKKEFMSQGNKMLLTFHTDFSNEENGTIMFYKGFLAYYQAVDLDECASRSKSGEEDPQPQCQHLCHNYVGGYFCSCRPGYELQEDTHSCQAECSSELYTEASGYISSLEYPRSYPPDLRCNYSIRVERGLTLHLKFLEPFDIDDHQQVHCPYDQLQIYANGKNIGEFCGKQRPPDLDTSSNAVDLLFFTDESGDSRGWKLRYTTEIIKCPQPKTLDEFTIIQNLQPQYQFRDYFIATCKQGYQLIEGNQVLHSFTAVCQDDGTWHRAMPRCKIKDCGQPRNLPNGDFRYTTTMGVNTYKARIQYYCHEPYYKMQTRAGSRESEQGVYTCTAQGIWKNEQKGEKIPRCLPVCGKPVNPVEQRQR
# T3 sequence (P00736 464-705 limits assumed): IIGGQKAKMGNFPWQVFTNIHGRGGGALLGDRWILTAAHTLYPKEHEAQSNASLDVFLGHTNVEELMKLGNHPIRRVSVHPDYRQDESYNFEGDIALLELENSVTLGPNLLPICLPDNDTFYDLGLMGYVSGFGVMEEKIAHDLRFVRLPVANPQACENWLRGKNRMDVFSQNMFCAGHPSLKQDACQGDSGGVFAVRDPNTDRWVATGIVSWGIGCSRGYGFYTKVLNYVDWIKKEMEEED
# human C1s, activated = biological target: T4, human C1s, activated (Homo sapiens, UniProt P09871)
# T4 sequence (P09871 16-437 limits assumed): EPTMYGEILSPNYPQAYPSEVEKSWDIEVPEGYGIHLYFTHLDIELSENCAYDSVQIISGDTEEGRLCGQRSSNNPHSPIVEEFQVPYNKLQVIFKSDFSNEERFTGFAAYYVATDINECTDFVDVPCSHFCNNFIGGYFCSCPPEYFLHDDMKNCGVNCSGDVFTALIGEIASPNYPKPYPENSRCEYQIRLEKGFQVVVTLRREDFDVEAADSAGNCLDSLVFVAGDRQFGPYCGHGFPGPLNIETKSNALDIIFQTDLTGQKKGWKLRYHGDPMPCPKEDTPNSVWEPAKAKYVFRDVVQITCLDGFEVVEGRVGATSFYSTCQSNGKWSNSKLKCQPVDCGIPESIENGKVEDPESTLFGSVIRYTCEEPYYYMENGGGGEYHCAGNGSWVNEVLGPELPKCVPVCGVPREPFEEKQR
# T4 sequence (P09871 438-688 limits assumed): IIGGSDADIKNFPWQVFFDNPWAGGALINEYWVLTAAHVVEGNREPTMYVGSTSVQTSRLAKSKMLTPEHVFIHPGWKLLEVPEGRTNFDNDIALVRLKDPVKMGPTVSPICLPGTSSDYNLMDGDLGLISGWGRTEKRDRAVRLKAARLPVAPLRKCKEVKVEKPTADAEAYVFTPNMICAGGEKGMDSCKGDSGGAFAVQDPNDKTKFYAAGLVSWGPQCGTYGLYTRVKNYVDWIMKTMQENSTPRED
# human plasma factor XIa = biological target: T5, human plasma factor XIa (Homo sapiens, UniProt P03951)
# T5 construct: human plasma factor XIa; from tissue; host or cells: plasma (from the name only)
# human plasmin = biological target: T6, human plasmin (Homo sapiens, UniProt P00747)
# T6 construct: human plasmin
# [2] = biological target: T7, human neutrophil elastase (Homo sapiens, UniProt P08246)
# T7 sequence (P08246 30-267): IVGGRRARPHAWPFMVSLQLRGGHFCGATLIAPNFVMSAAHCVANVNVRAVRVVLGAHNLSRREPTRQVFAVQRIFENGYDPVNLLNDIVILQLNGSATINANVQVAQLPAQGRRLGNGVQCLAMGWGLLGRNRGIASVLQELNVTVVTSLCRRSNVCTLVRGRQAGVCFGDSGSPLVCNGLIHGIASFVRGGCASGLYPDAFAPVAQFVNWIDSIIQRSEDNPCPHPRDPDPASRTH
# human plasma thrombin = biological target: T8, human plasma thrombin (Homo sapiens, UniProt P00734)
# T8 construct: human plasma thrombin; from tissue; host or cells: plasma (from the name only)
# human plasma factor XIIa = biological target: human plasma factor XIIa
# Sequence of human plasma factor XIIa (P00748 373-615 limits assumed): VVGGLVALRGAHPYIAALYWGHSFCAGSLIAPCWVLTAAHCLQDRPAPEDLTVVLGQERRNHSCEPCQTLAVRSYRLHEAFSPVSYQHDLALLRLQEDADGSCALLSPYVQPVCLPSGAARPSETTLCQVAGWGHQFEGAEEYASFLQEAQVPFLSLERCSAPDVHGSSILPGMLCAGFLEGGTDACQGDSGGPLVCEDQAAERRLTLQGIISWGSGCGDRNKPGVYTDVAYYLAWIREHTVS
# T5 sequence (P03951 19-387 limits assumed): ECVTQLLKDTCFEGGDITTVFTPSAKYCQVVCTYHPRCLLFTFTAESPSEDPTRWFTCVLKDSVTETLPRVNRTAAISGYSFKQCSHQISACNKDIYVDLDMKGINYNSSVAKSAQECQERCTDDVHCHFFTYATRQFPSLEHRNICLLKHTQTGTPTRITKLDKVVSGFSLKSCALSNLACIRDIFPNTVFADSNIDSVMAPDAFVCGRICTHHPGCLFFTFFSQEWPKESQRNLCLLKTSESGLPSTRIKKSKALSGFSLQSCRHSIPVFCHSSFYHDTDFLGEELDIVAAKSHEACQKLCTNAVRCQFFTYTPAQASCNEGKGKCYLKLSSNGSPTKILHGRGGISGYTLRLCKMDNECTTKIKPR
# T5 sequence (P03951 388-625 limits assumed): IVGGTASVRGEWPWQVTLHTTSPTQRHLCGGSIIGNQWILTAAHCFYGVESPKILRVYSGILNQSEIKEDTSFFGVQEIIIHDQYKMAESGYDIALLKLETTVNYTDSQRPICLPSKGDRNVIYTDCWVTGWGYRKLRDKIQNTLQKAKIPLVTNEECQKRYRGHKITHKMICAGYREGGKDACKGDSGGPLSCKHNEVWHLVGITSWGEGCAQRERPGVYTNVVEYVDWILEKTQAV
# T2 sequence (P00752 8-246): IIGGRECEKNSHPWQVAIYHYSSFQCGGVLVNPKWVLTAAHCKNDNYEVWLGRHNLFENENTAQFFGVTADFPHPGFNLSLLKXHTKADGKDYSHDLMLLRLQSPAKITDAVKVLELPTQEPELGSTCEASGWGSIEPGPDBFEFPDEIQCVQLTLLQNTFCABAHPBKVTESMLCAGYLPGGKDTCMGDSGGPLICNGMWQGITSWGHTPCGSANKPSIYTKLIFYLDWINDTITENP
# T6 sequence (P00747 97-580 limits assumed): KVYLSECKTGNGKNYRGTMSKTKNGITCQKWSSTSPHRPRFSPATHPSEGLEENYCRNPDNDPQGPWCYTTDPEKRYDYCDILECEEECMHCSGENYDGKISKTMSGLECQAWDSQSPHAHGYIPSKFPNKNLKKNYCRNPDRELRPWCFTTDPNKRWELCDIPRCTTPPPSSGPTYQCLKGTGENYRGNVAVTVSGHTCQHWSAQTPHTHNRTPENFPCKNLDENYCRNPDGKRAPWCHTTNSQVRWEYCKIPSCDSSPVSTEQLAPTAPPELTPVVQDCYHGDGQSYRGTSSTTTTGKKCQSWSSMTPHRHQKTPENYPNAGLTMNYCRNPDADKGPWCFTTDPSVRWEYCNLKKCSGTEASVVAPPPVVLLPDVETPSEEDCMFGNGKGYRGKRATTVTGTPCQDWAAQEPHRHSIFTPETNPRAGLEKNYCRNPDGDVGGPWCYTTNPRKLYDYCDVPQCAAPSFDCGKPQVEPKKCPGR
# T6 sequence (P00747 581-810 limits assumed): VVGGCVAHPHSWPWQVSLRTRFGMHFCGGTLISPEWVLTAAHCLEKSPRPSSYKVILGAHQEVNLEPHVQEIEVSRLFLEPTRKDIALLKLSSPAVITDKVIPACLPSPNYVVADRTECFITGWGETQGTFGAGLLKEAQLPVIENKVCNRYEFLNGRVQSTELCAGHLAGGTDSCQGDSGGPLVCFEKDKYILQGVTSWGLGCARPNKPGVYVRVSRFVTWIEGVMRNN
# T1 sequence (P06870 25-262): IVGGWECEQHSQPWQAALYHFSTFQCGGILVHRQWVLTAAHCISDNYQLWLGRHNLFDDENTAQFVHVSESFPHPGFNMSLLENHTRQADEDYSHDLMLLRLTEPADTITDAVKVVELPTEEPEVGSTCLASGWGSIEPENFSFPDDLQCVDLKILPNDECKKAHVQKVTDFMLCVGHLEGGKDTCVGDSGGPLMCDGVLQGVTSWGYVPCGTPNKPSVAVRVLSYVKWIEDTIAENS
Ki (human plasma factor XIIa) [µM],Substance,Ki (human urine kallikrein) [µM],Ki [1] [µM],"Ki (human C1r, activated) [µM]","Ki (human C1s, activated) [µM]",Ki (human plasma factor XIa) [µM],Ki (human plasmin) [µM],Ki [2] [µM],Ki (human plasma thrombin) [µM]
,"EAMHSFCAFKADDGPCRAAHPRWFFNIFTRQCEEFIYGGCEGNQNRFESLEECKKMCTRD (disulfide 7-57, 16-40, 32-53) [PEP-1]",> 100,27,> 200,> 20,0.01,0.14,> 20,> 20
> 100,aprotinin [reference compound],,,,> 100,,,,> 100
